The text below walks through data of patent US20050119253A1, “Method of treating mental disorders using of D4 and 5-HT2A antagonists, inverse agonists or partial agonists” (priority 2003, published 2005).

Structures are written as SMILES. Like-named read-outs stand apart in the source and are kept apart here.

Holding throughout (assay type): binding
In one assay the target is D1 (Homo sapiens, UniProt P21728). The experiment in a line: pKi of test compounds, D1 receptor.
In a further assay the target is T1, Alpha1A (Homo sapiens, UniProt P35348).
T1 sequence (P35348 1-466): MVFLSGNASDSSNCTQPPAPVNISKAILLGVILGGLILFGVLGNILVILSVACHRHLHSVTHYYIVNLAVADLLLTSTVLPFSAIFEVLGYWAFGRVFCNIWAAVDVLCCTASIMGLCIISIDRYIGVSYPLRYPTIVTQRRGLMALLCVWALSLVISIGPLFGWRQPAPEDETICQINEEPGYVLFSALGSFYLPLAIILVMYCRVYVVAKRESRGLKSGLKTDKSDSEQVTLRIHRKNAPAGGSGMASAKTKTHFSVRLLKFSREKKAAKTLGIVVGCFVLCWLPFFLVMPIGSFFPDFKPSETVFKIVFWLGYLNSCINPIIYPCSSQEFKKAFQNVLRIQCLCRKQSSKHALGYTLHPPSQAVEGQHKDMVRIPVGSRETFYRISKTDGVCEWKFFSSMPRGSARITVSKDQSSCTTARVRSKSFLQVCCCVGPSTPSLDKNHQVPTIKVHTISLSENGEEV
The experiment in a line: pKi of test compounds, adrenergic receptor Alpha1A.

In the next assay the target is T2, 5HT2C (Homo sapiens, UniProt P28335).
T2 sequence (P28335 33-458): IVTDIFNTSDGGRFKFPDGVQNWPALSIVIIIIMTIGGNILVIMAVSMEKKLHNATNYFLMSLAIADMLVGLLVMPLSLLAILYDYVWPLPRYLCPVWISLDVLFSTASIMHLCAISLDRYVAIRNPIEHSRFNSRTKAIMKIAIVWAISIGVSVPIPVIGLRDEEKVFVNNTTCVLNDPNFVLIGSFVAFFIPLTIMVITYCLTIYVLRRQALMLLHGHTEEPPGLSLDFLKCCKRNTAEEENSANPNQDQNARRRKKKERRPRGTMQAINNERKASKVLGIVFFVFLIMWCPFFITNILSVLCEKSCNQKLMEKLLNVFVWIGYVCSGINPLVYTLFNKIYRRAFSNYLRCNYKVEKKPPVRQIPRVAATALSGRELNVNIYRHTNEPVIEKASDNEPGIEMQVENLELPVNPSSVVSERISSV
The experiment in a line: pKi of test compounds, 5HT2C receptor.

The target in another assay is D3 (Homo sapiens, UniProt P35462). The experiment in a line: pKi of test compounds, D3 receptor.
D3, sequence (P35462 whole entry): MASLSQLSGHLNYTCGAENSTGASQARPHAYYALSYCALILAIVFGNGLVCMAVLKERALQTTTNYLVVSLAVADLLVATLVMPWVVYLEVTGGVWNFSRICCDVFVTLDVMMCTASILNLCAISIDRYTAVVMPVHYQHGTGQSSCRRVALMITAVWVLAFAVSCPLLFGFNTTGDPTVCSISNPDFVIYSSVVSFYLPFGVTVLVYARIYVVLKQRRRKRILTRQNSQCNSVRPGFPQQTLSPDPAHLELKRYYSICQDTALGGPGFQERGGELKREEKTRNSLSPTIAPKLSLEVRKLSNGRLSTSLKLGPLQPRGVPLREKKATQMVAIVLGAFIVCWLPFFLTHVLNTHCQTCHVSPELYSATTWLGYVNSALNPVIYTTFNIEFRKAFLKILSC
In the next assay the target is T3, Alpha2A (Homo sapiens, UniProt P08913).
T3 sequence (P08913 1-465): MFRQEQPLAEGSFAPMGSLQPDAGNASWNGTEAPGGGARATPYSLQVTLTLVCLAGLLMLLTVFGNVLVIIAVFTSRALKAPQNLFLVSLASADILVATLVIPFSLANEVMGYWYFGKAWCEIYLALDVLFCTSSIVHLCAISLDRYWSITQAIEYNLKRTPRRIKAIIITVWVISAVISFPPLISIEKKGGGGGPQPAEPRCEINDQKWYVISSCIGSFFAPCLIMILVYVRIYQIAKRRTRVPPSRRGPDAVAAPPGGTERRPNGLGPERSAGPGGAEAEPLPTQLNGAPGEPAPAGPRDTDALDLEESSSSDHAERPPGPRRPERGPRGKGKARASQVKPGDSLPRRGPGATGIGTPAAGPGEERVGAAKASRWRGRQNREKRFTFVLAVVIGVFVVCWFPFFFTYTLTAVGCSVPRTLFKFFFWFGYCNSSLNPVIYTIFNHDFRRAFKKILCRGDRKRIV
The experiment in a line: pKi of test compounds, adrenergic receptor Alpha2A.

The target in another assay is T4, 5HT1A (Homo sapiens, UniProt P08908).
T4 sequence (P08908 1-422): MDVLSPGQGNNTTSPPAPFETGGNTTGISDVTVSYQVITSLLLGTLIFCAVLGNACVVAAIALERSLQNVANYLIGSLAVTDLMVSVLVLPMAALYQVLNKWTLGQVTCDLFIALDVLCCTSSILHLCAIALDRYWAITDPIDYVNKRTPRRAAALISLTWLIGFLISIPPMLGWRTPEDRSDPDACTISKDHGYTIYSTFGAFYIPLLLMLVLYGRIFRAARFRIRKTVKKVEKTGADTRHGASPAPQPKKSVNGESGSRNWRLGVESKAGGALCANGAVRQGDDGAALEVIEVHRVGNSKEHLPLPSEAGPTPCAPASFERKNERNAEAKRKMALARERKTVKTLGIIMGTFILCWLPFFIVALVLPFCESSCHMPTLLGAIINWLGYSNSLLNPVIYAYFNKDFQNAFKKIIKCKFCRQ
The experiment in a line: pKi of test compounds, 5HT1A receptor.

The next assay addresses 5HT1B (Homo sapiens, UniProt P28222). The experiment in a line: pKi of test compounds, 5HT1B receptor.
For the next assay, the target named is 5HT1D (Homo sapiens, UniProt P28221). The experiment in a line: pKi of test compounds, 5HT1D receptor.
5HT1D, sequence (P28221 whole entry, species assumed): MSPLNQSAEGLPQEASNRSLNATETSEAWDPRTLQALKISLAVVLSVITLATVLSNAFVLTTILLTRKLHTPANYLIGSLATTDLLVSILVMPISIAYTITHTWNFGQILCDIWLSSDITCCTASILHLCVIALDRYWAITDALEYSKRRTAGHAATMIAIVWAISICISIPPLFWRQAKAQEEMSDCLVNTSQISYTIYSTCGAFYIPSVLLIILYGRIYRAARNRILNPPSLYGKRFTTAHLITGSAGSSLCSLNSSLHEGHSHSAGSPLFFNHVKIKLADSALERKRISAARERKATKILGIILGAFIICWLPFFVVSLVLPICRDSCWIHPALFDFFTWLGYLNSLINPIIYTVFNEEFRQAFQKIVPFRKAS
Another assay concerns the target 5HT2B (Homo sapiens, UniProt P41595). The experiment in a line: pKi of test compounds, 5HT2B receptor.
The target in a further assay is T5, D4 receptor (Homo sapiens, UniProt P21917).
T5 sequence (P21917 1-419): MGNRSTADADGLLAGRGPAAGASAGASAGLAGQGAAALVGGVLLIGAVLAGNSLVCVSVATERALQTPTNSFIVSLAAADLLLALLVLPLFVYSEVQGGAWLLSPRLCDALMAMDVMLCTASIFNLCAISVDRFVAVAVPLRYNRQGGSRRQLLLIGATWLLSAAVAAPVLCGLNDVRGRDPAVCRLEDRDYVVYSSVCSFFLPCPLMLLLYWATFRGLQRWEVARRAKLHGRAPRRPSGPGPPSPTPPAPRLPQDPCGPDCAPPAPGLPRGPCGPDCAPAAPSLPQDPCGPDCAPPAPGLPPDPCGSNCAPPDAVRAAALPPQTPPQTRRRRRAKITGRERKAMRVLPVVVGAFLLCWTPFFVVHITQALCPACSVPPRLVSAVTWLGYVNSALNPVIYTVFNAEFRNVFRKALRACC
The experiment in a line: pKi of test compounds, D4 receptor.

The next assay has as its target 5-HT2A receptor (Homo sapiens, UniProt P28223). The experiment in a line: pKi of test compounds, 5-HT2A receptor.
A further assay deals with D2 (Homo sapiens, UniProt P14416). The experiment in a line: pKi of test compounds, D2 receptor.
D2, sequence (P14416 whole entry): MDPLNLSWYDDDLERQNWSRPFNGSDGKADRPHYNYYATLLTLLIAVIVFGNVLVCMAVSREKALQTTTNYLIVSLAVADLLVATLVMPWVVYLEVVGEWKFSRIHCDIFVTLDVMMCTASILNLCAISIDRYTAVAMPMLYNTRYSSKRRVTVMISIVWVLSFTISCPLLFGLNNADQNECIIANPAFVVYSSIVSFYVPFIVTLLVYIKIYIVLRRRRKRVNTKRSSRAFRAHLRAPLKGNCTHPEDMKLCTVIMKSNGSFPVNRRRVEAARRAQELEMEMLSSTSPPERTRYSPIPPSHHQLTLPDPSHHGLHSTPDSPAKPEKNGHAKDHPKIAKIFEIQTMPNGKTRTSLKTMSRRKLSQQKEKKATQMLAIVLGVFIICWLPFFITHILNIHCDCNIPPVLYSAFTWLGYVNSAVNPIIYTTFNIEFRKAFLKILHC
For another assay, the target named is 5HT1E (Homo sapiens, UniProt P28566). The experiment in a line: pKi of test compounds, 5HT1E receptor.
5HT1E, sequence (P28566 whole entry, species assumed): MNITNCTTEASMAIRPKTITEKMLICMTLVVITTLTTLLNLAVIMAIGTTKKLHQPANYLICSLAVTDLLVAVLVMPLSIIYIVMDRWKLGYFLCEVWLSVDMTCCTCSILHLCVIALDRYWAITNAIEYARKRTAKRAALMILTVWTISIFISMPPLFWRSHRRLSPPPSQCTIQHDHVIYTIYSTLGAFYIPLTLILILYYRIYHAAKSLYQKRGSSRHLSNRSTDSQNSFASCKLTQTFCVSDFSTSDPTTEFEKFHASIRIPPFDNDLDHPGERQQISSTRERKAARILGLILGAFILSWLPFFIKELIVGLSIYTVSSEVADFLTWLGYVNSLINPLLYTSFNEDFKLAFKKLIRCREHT
The next assay concerns the target 5HT7rat (Rattus norvegicus, UniProt P32305). The experiment in a line: pKi of test compounds, 5HT7 receptor.
The next assay concerns the target Beta1 (Homo sapiens, UniProt P08588). The experiment in a line: pKi of test compounds, adrenergic receptor Beta1.
For a further assay, the target named is 5HT6rat (Rattus norvegicus, UniProt P31388). The experiment in a line: pKi of test compounds, 5HT6 receptor.
Another assay has as its target Beta2 (Homo sapiens, UniProt P07550). The experiment in a line: pKi of test compounds, adrenergic receptor Beta2.
Where [1] appears, read: read-out: pKi 5HT1D (converted).
[2] abbreviates: D4, read-out: pKi D4 (converted).

5HT1B, sequence (P28222 whole entry, species assumed): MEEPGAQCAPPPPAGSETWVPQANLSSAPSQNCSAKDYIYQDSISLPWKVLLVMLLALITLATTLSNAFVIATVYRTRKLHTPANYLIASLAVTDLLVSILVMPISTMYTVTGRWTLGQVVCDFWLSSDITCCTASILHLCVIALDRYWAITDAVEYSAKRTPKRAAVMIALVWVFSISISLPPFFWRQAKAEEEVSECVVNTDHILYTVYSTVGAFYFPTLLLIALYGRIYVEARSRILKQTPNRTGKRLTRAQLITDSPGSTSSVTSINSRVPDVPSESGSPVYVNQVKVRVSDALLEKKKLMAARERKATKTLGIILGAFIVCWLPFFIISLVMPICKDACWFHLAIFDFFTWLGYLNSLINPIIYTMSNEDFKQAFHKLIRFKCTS
5-HT2A receptor, sequence (P28223 whole entry): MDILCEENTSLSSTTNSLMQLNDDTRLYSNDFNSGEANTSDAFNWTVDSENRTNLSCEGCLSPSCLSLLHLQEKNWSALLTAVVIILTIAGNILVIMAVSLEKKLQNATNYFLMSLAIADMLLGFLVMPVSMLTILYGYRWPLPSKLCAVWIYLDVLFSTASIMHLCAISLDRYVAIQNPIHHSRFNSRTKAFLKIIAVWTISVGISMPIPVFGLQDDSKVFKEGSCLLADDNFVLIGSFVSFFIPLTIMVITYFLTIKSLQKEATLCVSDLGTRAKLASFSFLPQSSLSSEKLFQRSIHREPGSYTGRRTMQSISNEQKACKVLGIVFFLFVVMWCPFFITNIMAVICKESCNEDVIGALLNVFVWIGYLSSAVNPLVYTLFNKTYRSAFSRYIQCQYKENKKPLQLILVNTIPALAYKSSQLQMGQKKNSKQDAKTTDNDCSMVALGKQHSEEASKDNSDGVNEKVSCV
D1, sequence (P21728 whole entry): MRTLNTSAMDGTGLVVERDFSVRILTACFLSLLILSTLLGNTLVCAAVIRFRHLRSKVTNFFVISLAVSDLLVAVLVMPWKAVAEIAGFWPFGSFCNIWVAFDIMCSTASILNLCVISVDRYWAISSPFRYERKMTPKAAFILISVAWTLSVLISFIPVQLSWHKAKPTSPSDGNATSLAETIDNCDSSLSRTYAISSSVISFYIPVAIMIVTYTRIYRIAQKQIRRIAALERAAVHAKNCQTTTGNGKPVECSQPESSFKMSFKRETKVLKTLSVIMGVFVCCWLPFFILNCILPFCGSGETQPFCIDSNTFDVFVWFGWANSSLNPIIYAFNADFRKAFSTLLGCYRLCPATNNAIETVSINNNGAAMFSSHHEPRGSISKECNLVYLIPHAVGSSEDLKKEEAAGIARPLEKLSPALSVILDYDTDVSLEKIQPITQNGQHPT
5HT2B, sequence (P41595 whole entry, species assumed): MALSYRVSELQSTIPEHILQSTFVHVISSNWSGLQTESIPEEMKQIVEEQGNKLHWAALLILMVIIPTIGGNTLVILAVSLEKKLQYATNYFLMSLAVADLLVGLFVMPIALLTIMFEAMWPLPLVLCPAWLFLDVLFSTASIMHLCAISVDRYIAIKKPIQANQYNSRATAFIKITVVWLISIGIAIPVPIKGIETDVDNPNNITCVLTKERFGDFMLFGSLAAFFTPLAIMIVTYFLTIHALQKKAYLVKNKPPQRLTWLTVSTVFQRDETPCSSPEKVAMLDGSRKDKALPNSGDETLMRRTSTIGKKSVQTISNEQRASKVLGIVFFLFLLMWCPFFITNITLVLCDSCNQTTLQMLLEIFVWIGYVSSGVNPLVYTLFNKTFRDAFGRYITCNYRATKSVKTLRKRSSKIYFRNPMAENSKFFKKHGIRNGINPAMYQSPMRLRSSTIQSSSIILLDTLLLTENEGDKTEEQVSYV
Beta2, sequence (P07550 whole entry): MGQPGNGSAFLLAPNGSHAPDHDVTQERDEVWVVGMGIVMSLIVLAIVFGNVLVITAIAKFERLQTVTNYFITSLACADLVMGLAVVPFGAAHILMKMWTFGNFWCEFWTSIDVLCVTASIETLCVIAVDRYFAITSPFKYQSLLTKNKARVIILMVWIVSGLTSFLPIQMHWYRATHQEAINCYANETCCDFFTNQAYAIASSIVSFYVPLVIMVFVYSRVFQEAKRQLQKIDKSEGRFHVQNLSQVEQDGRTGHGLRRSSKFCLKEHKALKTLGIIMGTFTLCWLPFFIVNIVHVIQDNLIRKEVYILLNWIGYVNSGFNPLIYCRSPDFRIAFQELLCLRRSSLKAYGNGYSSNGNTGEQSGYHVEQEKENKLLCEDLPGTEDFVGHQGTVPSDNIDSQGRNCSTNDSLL
Beta1, sequence (P08588 whole entry): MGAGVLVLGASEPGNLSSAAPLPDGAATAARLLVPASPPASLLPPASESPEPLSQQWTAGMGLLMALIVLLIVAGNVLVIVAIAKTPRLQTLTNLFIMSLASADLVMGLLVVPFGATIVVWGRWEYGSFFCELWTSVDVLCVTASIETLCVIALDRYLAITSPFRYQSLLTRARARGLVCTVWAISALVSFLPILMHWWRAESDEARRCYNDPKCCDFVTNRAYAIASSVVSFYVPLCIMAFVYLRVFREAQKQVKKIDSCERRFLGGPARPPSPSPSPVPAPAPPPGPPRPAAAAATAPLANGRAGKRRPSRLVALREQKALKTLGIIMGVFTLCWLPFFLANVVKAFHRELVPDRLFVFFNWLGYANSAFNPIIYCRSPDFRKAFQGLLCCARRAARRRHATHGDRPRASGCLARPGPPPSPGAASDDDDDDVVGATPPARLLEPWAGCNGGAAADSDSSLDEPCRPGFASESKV
5HT7rat, sequence (P32305 whole entry): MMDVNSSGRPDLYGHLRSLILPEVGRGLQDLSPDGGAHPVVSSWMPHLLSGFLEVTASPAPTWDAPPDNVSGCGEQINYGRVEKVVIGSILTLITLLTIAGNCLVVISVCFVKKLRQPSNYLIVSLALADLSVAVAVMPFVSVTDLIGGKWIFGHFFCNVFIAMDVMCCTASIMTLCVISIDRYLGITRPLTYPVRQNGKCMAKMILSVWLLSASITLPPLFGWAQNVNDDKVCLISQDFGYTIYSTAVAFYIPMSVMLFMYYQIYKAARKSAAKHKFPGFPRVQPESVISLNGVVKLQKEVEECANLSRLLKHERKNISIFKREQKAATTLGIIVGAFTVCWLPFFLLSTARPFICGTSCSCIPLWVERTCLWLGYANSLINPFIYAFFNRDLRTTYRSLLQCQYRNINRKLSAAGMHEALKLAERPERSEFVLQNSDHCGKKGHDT

`CCN1CCC[C@H]1CNC(=O)c1c(O)c(Cl)cc(Cl)c1OC` [Raciopride]: the Ki on D1 is over 1000 nM; at Alpha1A it was over 1000 nM; at 5HT2C, over 1000 nM; at D3 (read-out: pKi D3 (converted)) it was 1 to 10 nM; on Alpha2A it was over 1000 nM; on 5HT1A, over 1000 nM.

For `OC1(c2ccc(Cl)cc2)CCN(Cc2c[nH]c3ccccc23)CC1` [L741626], at 5HT1B, the “pKi 5HT1B” value is on record as under 6. Also, the “pKi 5HT1D” value on 5HT1D was under 6. On D3, the “pKi D3” value is given as 7-8. On Alpha2A, the “pKi Alpha2A” value is on record as under 6. Further, the “pKi 5HT2B” value at 5HT2B is listed as 6-7.

`O=C1NCCN1CCN1CCC(c2cn(-c3ccc(F)cc3)c3ccc(Cl)cc23)CC1` [Sertindole]: the Ki is 10 to 100 nM at 5HT1B, 10 to 100 nM on D1, 10 to 100 nM at 5HT1D (setting [1]) and under 1 nM on Alpha1A.

As to `O=C1N(CCN2CCC(c3noc4cc(F)ccc34)CC2)CCN1c1ccccc1` [S18327], the “pKi D4” value at D4 receptor (D4) is recorded as 8-9. Moreover, the “pKi 5-HT2A” value on 5-HT2A receptor is listed as 8-9. In addition, on D1, the “pKi D1” value was 7-8. Also, on D2, the “pKi D2” value was 7-8. Further, the “pKi Alpha1A” value on Alpha1A is recorded as over 9. Moreover, the “pKi 5HT2C” value at 5HT2C is listed as 6-7. Besides, the “pKi D3” value on D3 is reported as 6-7. The “pKi Alpha2A” value on Alpha2A was 6-7. Moreover, the “pKi 5HT1A” value on 5HT1A is listed as 7-8.

Turning to `O=C1NCN(c2ccccc2)C12CCN(CCCC(c1ccc(F)cc1)c1ccc(F)cc1)CC2` [Fluspirilene], the Ki is over 1000 nM at 5HT1B; 1 to 10 nM at D4 receptor (setting [2]); under 1 nM at D2 (read-out: pKi D2 (converted)); over 1000 nM at 5HT1D (setting [1]); over 1000 nM at 5HT1E.

On to `Cc1nc2c(C)cccn2c(=O)c1CCN1CCC(c2noc3cc(F)ccc23)CC1` [Ocaperidone], for which the Ki at D4 receptor (setting [2]) is 1 to 10 nM; on 5-HT2A receptor it was under 1 nM; on D1 it was 10 to 100 nM; at D2 (read-out: pKi D2 (converted)), under 1 nM; on Alpha1A it was under 1 nM; on 5HT2C, 10 to 100 nM. The Ki at D3 (read-out: pKi D3 (converted)) is 1 to 10 nM; at 5HT1A, 10 to 100 nM.

Consider `COC(=O)[C@@H]1[C@H]2C[C@H]3c4[nH]c5ccccc5c4CCN3C[C@@H]2CC[C@@H]1O` [Yohimbine], for which the Ki at D2 (read-out: pKi D2 (converted)) was 100 to 1000 nM; on 5HT1D, 10 to 100 nM.

In the case of `O=C1Cc2cc(CCN3CCN(c4nsc5ccccc45)CC3)c(Cl)cc2N1` [Ziprasidone], the Ki at 5HT1B was under 1 nM; at 5HT7rat, 1 to 10 nM; at Beta1 it was over 1000 nM; at 5HT1D (setting [1]), 1 to 10 nM; on 5HT1E it was 100 to 1000 nM; at 5HT6rat, 10 to 100 nM. Moreover, the Ki on Beta2 is over 1000 nM; at 5HT1A, 1 to 10 nM; on 5HT2B, 1 to 10 nM.

On 5HT1E, `OCCOCCN1CCN(C2=Nc3ccccc3Sc3ccccc32)CC1` [Seroquel] gave a Ki of over 1000 nM.

For `CCNC(=O)N1CCN(CCCC(c2ccc(F)cc2)c2ccc(F)cc2)CC1` [Amperozide], the Ki at 5-HT2A receptor was 1 to 10 nM; on D1, 100 to 1000 nM; at D2 (read-out: pKi D2 (converted)) it was 100 to 1000 nM; at Alpha1A, 10 to 100 nM; at 5HT2C, over 1000 nM; at D3 (read-out: pKi D3 (converted)) it was 100 to 1000 nM. Besides, the Ki at Alpha2A and at 5HT1A was over 1000 nM in each case.

As to `N#Cc1ccc2c(c1)[C@H]1CN(CCCCNC(=O)c3ccc(-c4ccccc4)cc3)C[C@@H]1CO2` [S33084], on 5HT1B, the “pKi 5HT1B” value is listed as 6-7. In addition, the “pKi D1” value at D1 is 6-7. In addition, the “pKi D2” value at D2 is 7-8. Further, the “pKi 5HT1D” value on 5HT1D was 6-7. Further, the “pKi Alpha1A” value on Alpha1A is recorded as 6-7. Also, at 5HT2C, the “pKi 5HT2C” value is reported as 7-8. Moreover, the “pKi D3” value on D3 is given as over 9. Further, the “pKi Alpha2A” value on Alpha2A is on record as under 6. Besides, on 5HT1A, the “pKi 5HT1A” value is reported as under 6. Moreover, the “pKi 5HT2B” value at 5HT2B is 6-7.

As to `O=C1CC2(CCCC2)CC(=O)N1CCCCN1CCN(c2nsc3ccccc23)CC1` [Tiospirone], the Ki at D4 receptor was 1 to 10 nM; on 5-HT2A receptor, under 1 nM; at D2, 1 to 10 nM; on Alpha1A, under 1 nM; at D3 it was 1 to 10 nM; on Alpha2A, 100 to 1000 nM.

`CN(C)CCOC1=Cc2ccccc2Sc2ccc(Cl)cc21` [Zotepine]: the Ki is 10 to 100 nM at 5HT1B, 10 to 100 nM at 5HT1D (setting [1]) and 100 to 1000 nM at 5HT1E.
